Experimental data published in patent US20220152204A1, “PHOTOIMMUNOTHERAPY AND PHARMACEUTICAL AGENT USED THEREFOR” (SHIMADZU CORPORATION, priority 2019, published 2022).
Ends that are not written are not given here.

Experiments:
[1] = test system: Epidermal cancer cells (A431); test: Observation under fluorescent microscope of A431 cells before and after 690 nm laser exposure; assay type: cell-based; details: 20 μg added, 10 minutes at 37° C., 690 nm laser at 50 J
Method: Epidermal cancer cells (A431) were placed at 10,000 cells/mL into a 3.5 mm dish and incubated for 1 day. Subsequently, 20 μg of IF7C-IR700 or IR700 was added to the respective dish and incubation was performed for 10 minutes at 37° C.
Exposure to a 690 nm laser was performed at 50 J, and the A431 cells before and after exposure were observed under a fluorescent microscope (IX61 or IX81; Olympus America). […] From this, it can be inferred that IF7C-IR700 is internalized by cells and undergoes a reaction, causing the cells to shrink.

[2] = test system: xenograft model animals implanted with A431; test: Mouse experiment: fluorescent intensity monitoring of pharmaceutical agent accumulation in A431 xenograft model animals; assay type: in vivo; details: A431 xenograft mice, 0.033 μmol, Pearl Imager, monitored up to 180 min
Method: Five xenograft model animals implanted with A431 were treated with 0.033 μmol IF7C-IR700, and the fluorescent intensity of body surface, tumor and liver of the mice was monitored at 10 min intervals for up to 60 min and at 30 min intervals for up to 180 min with a Pearl Imager (LI-COR Bioscience) to check for accumulation of pharmaceutical agent. The fluorescent intensity over the tumor reached a maximum at 60 min, so exposure to therapeutic light was performed 60 min after pharmaceutical agent injection to carry out NIR-PIT with IF7C-IR700. For the PIT, exposure to NIR light was performed under conditions which enable cleavage of the IR700, at a wavelength of 680 nm to 690 nm and a dose of 10 J/cm^2.

## IF7C-IR700: IF7-C peptide (IFLLWQRC, SEQ ID NO: 6) conjugated with IR700 maleimide via the cysteine SH residue (IFLLWQRC(IR700 maleimide))
[1]
  cell shrinkage observed under fluorescent microscope after exposure: the cells had shrunk
[2]
  time at which fluorescent intensity over the tumor reached a maximum: 60 min
